Source: ChEMBL document CHEMBL4507291 (2021)

Assays:
[1] = biological target: Calcium/calmodulin-dependent protein kinase type 1G (Homo sapiens) (UniProt Q96NX5)
[2] = biological target: Cyclin-dependent kinase 4 (Homo sapiens) (UniProt P11802)
[3] = biological target: T1, Myotonin-protein kinase (Homo sapiens) (UniProt Q09013)
T1 sequence (whole entry): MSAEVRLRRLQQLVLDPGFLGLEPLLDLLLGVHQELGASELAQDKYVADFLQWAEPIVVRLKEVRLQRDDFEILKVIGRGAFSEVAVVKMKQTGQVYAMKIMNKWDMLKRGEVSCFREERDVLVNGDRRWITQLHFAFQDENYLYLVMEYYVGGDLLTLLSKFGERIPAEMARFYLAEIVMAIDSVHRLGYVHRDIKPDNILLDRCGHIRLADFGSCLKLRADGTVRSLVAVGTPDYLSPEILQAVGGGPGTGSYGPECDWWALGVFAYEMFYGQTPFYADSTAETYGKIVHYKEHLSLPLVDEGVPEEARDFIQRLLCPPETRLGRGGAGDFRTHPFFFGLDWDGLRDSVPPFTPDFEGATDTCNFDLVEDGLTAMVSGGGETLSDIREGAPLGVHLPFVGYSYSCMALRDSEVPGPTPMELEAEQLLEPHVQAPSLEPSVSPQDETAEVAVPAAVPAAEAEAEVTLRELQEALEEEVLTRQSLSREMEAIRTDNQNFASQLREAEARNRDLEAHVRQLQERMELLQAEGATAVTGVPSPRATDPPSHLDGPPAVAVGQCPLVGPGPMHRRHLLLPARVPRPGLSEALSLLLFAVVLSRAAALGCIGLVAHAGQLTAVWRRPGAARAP

[4] = biological target: Dual specificity tyrosine-phosphorylation-regulated kinase 1B (Homo sapiens) (UniProt Q9Y463)
[5] = biological target: T2, Ephrin type-B receptor 2 (Homo sapiens) (UniProt P29323)
T2 sequence (whole entry): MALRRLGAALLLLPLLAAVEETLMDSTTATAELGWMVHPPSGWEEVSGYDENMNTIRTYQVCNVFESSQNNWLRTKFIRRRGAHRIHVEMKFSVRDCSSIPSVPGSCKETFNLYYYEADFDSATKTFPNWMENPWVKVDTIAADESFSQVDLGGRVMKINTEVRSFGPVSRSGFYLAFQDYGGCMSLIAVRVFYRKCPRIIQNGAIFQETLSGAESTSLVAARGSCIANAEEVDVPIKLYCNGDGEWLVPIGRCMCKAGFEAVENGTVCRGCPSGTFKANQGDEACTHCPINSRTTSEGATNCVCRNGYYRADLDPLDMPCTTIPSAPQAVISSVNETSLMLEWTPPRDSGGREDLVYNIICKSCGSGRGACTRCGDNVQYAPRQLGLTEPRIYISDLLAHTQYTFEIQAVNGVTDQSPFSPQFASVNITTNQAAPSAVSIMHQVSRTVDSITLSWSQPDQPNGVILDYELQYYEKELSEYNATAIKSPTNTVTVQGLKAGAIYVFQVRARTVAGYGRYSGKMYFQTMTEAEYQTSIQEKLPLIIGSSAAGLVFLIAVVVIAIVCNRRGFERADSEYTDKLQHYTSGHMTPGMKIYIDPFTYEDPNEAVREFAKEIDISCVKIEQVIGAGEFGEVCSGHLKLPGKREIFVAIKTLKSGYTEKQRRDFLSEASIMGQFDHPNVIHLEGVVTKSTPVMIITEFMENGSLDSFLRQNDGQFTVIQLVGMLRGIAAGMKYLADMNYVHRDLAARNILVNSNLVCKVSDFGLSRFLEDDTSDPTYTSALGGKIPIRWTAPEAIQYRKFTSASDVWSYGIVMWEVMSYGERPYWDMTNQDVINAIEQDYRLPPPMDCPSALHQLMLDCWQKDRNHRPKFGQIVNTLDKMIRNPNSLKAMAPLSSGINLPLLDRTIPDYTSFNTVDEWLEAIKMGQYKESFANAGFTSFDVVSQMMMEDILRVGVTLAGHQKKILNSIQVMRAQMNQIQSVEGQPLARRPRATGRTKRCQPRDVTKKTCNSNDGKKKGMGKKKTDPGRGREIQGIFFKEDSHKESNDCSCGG

[6] = test system: Receptor-type tyrosine-protein kinase FLT3 (Homo sapiens), P36888 [D835V]
[7] = biological target: Hormonally up-regulated neu tumor-associated kinase (Homo sapiens) (UniProt P57058)
[8] = biological target: Interleukin-1 receptor-associated kinase 1 (Homo sapiens) (UniProt P51617)
[9] = biological target: Cyclin-dependent kinase 16 (Homo sapiens) (UniProt Q00536)
[10] = biological target: Cyclin-dependent kinase 15 (Homo sapiens) (UniProt Q96Q40)
[11] = biological target: Interferon-induced, double-stranded RNA-activated protein kinase (Homo sapiens) (UniProt P19525)
[12] = biological target: Non-receptor tyrosine-protein kinase TNK1 (Homo sapiens) (UniProt Q13470)
[13] = biological target: Activated CDC42 kinase 1 (Homo sapiens) (UniProt Q07912)
[14] = biological target: Testis-specific serine/threonine-protein kinase 1 (Homo sapiens) (UniProt Q9BXA7)
[15] = biological target: T3, Tyrosine-protein kinase TXK (Homo sapiens) (UniProt P42681)
T3 sequence (whole entry): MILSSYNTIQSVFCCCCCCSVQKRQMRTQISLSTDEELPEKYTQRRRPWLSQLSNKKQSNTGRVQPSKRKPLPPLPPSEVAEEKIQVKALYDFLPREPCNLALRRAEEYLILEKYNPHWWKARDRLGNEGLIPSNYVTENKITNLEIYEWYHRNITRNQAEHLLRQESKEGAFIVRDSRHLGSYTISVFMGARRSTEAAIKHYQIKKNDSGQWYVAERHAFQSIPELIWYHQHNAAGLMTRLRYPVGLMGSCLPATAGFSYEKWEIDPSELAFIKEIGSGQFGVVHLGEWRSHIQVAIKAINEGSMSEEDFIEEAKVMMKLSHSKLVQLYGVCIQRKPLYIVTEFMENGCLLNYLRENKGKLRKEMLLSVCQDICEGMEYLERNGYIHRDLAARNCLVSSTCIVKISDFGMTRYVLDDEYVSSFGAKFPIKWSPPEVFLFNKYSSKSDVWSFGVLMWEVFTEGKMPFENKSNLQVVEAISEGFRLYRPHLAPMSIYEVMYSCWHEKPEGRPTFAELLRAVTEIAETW

[16] = Compound concentration 1000.0 nM
[17] = Compound concentration 100.0 nM

Measured: residual activity

Cyclin-dependent kinase 16 (Homo sapiens), sequence (Q00536 whole entry): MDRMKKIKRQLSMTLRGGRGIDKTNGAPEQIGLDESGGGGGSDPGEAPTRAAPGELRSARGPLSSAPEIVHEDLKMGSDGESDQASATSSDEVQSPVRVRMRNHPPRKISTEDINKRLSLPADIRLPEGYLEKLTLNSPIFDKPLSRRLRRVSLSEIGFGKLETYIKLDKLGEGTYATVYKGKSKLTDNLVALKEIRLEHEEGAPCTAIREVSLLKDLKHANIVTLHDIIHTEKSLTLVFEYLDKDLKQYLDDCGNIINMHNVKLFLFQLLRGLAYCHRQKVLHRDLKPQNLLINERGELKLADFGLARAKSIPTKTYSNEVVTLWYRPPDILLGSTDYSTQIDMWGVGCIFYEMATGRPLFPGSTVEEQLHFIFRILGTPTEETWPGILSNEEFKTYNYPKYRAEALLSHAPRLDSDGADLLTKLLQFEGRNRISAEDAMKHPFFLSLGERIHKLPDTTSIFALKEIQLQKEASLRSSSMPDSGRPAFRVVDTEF
Interleukin-1 receptor-associated kinase 1 (Homo sapiens), sequence (P51617 whole entry, looked up): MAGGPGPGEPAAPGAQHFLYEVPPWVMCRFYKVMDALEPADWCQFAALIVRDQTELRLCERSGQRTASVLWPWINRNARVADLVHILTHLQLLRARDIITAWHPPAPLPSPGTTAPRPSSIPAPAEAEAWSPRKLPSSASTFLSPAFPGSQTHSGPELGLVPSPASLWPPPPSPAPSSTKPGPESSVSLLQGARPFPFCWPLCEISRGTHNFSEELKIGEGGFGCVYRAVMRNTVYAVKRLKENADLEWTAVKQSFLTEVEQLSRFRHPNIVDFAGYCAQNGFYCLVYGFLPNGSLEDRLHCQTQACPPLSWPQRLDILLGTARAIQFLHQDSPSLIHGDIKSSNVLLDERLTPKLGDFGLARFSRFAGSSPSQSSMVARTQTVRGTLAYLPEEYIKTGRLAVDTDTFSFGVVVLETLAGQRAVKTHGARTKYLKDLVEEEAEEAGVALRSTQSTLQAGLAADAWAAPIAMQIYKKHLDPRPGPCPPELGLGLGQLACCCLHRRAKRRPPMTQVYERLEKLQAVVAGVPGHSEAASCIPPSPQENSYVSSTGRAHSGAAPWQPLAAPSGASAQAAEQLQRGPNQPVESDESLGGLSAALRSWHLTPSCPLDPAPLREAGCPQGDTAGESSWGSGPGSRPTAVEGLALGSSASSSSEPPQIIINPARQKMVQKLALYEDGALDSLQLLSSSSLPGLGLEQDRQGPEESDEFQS
Calcium/calmodulin-dependent protein kinase type 1G (Homo sapiens), sequence (Q96NX5 whole entry): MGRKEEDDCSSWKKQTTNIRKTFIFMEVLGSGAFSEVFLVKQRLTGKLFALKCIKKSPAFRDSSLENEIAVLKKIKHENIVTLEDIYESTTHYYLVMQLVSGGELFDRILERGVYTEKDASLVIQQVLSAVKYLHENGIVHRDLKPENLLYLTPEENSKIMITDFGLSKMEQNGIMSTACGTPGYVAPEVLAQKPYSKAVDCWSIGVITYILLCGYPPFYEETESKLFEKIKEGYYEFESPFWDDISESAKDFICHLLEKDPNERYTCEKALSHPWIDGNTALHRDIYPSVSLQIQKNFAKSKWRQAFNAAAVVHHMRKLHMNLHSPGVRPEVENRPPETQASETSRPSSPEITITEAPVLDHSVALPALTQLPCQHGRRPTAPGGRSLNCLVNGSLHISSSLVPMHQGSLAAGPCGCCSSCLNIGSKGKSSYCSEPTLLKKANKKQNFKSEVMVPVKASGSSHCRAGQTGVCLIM
Activated CDC42 kinase 1 (Homo sapiens), sequence (Q07912 whole entry, looked up): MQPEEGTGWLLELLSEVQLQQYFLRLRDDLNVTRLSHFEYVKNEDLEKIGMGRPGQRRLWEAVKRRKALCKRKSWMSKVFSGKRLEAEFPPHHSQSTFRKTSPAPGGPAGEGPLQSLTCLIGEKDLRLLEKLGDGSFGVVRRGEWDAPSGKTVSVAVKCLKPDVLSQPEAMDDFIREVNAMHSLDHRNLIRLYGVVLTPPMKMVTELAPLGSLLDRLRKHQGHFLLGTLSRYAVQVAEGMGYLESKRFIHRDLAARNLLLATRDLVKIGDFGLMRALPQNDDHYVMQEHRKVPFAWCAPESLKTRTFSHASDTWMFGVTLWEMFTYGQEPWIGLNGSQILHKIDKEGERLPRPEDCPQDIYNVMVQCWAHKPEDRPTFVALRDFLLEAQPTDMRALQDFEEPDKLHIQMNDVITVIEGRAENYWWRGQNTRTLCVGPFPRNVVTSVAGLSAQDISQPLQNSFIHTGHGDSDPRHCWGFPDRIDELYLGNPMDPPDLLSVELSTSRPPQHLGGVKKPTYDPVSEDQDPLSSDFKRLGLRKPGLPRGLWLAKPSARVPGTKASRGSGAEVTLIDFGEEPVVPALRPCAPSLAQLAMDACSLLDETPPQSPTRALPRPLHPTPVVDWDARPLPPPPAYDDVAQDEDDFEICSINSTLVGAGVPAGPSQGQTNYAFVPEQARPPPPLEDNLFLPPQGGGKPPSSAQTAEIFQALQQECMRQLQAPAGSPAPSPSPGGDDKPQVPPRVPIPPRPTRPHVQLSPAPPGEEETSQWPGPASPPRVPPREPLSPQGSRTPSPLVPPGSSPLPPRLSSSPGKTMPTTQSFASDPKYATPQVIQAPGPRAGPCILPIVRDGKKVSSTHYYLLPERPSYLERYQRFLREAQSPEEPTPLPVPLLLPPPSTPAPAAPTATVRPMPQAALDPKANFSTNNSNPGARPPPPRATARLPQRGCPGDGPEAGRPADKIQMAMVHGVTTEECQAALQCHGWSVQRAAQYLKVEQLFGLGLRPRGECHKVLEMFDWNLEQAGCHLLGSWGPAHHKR
Cyclin-dependent kinase 15 (Homo sapiens), sequence (Q96Q40 whole entry): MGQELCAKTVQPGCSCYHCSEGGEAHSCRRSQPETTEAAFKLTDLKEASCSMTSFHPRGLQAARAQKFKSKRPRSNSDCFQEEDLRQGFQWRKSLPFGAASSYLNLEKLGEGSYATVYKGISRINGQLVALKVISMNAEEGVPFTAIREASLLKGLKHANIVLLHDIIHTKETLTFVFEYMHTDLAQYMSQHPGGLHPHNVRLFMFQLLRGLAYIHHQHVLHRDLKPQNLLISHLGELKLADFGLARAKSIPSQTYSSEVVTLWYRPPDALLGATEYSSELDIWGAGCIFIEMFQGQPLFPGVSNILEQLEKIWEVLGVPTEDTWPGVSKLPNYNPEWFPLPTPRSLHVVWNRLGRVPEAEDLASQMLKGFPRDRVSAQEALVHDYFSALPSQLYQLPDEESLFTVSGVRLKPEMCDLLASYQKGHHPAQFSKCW
Interferon-induced, double-stranded RNA-activated protein kinase (Homo sapiens), sequence (P19525 whole entry): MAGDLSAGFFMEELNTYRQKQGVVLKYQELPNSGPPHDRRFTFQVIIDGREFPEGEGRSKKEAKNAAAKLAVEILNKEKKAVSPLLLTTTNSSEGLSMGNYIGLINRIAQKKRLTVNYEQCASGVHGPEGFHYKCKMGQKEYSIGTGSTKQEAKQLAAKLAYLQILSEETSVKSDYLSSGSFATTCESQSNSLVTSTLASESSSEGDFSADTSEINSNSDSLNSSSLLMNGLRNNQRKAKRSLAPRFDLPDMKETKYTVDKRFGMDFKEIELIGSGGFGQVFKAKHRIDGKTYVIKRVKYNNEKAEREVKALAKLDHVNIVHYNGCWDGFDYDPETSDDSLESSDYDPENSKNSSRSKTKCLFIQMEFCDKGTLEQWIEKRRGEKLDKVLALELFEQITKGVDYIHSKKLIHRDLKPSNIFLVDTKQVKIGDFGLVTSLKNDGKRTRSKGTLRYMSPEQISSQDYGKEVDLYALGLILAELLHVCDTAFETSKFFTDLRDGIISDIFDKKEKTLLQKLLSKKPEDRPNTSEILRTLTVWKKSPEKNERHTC
Non-receptor tyrosine-protein kinase TNK1 (Homo sapiens), sequence (Q13470 whole entry): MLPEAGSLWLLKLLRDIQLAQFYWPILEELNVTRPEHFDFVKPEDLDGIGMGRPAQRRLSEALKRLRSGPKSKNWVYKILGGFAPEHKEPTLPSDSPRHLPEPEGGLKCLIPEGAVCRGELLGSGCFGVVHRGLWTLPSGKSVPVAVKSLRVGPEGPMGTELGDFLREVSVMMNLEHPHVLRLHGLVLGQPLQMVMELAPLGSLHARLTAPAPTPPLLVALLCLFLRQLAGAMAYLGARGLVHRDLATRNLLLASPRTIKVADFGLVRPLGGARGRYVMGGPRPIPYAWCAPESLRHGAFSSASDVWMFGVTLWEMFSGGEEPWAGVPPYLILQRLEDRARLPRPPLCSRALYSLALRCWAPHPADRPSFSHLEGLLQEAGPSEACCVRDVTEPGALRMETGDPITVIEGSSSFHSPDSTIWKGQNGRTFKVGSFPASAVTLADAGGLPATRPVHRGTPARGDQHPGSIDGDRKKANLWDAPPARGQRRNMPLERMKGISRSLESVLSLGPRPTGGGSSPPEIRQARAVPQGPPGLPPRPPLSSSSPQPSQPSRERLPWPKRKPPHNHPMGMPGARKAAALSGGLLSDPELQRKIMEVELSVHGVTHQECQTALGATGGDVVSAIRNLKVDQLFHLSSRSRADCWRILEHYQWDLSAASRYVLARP
Testis-specific serine/threonine-protein kinase 1 (Homo sapiens), sequence (Q9BXA7 whole entry): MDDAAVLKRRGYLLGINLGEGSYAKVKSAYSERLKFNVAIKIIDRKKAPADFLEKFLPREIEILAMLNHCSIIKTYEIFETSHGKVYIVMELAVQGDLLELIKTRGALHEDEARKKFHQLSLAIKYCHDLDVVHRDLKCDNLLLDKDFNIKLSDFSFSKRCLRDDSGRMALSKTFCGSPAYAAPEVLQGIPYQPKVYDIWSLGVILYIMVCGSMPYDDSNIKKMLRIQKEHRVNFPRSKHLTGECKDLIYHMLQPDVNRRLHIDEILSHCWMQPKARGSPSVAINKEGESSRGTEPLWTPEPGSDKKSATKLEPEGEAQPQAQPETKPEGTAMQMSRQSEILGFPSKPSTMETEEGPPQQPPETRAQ

C[C@@H]1CN(c2cc(-c3nn(C)c4ccc(OC5(C)CC5)cc34)ncn2)C[C@H](C)O1 [MLi-2-NC]
inactive: [1]; [16] 82% | [2]; [16] 91% | [3]; [16] 100% | [4]; [16] 100% | [5]; [16] 95% | [6]; [16] 86% | [7]; [16] 100% | [8]; [16] 67% | [9]; [16] 87% | [10]; [16] 84% | [11]; [16] 100% | [12]; [16] 95% | [13]; [16] 96% | [14]; [16] 99% | [15]; [16] 100%

C[C@@H]1CN(c2cc(-c3n[nH]c4ccc(OC5(C)CC5)cc34)ncn2)C[C@H](C)O1 [MLi-2]
inactive: [1]; [17] 91% | [2]; [17] 71% | [3]; [17] 85% | [4]; [17] 93% | [5]; [17] 90% | [6]; [17] 73% | [7]; [17] 79% | [8]; [17] 79% | [9]; [17] 85% | [10]; [17] 100% | [11]; [17] 100% | [12]; [17] 76% | [13]; [17] 79% | [14]; [17] 72% | [15]; [17] 80%
